Molecular target: Carbonic anhydrase 9 (Homo sapiens, UniProt Q16790)
Assay: Inhibition of human carbonic anhydrase-9 incubated for 10 mins prior to testing by stopped-flow CO2 hydrase assay

| Structure (SMILES) | Ki [nM] |
| --- | --- |
| Cc1nn(-c2ccc(S(N)(=O)=O)cc2)c(Cl)c1C1CC(c2ccccc2)=NN1c1ccc(S(N)(=O)=O)cc1 (configuration not stated) | 71.6 |
| Cc1ccc(C2=NN(c3ccc(S(N)(=O)=O)cc3)C(c3c(C)nn(-c4ccc(S(N)(=O)=O)cc4)c3Cl)C2)cc1 (configuration not stated) | 70.7 |
| CC(=O)N1N=C(c2ccccc2)CC1c1c(C)nn(-c2ccc(S(N)(=O)=O)cc2)c1Cl (configuration not stated) | 63.1 |
| CC(=O)N1N=C(c2ccc(C)cc2)CC1c1c(C)nn(-c2ccc(S(N)(=O)=O)cc2)c1Cl (configuration not stated) | 67.1 |
| COc1ccc(C2=NN(C(C)=O)C(c3c(C)nn(-c4ccc(S(N)(=O)=O)cc4)c3Cl)C2)cc1 (configuration not stated) | 56.9 |
| CC(=O)N1N=C(c2ccc(Br)cc2)CC1c1c(C)nn(-c2ccc(S(N)(=O)=O)cc2)c1Cl (configuration not stated) | 67.2 |

These reach a lower Ki. Values come first.

| Ki [nM] | Structure (SMILES) |
| --- | --- |
| 52.4 | COc1ccc(C2=NN(c3ccc(S(N)(=O)=O)cc3)C(c3c(C)nn(-c4ccc(S(N)(=O)=O)cc4)c3Cl)C2)cc1 (configuration not stated) |
| 44.7 | Cc1nn(-c2ccc(S(N)(=O)=O)cc2)c(Cl)c1C1CC(c2ccc(F)cc2)=NN1c1ccc(S(N)(=O)=O)cc1 (configuration not stated) |
| 44.4 | Cc1nn(-c2ccc(S(N)(=O)=O)cc2)c(Cl)c1C1CC(c2ccc(Br)cc2)=NN1c1ccc(S(N)(=O)=O)cc1 (configuration not stated) |
| 32.9 | Cc1nn(-c2ccc(S(N)(=O)=O)cc2)c(Cl)c1C1CC(c2ccc(Cl)cc2)=NN1c1ccc(S(N)(=O)=O)cc1 (configuration not stated) |
| 30.8 | CC(=O)N1N=C(c2ccc(Cl)cc2)CC1c1c(C)nn(-c2ccc(S(N)(=O)=O)cc2)c1Cl (configuration not stated) |
| 6.9 | CC(=O)N1N=C(c2ccc(F)cc2)CC1c1c(C)nn(-c2ccc(S(N)(=O)=O)cc2)c1Cl (configuration not stated) |

From ChEMBL document CHEMBL3600306, “Sulfonamide bearing pyrazolylpyrazolines as potent inhibitors of carbonic anhydrase isoforms I, II, IX and XII” (Bioorg Med Chem Lett, 2015)
